Test results published in US20240287138A1, “CYCLIC PEPTIDES FOR INHIBITING TNF RECEPTOR 1 ACTIVITY” (Merck Sharp & Dohme LLC, priority 2023, published 2024).
pIC50, pKd: −log10 of the molar value. Numbered stars: 1 amine (or outer) side, 2 acyl side, 3 side chain; on linkers, the order of the positions; unused ones are H or OH. Bridge positions count the residues as written; N and C are the ends. Square brackets hold non-standard residues; d marks the D form. Peptide text beside a SMILES is read from it. Trp(βS-Me,7-OMe) = COc1cccc2c([C@H](C)[C@H](N)C(=O)O)c[nH]c12; Trp(7-Cl) = N[C@@H](Cc1c[nH]c2c(Cl)cccc12)C(=O)O; Phe(4-COOH) = N[C@@H](Cc1ccc(C(=O)O)cc1)C(=O)O; X23 = N[C@@H]1CCN([*:1])[C@H](C(=O)[*:2])C1; X1 = O=C([C@@H]1CC[C@H](N[*:1])C1)[*:2]; Nle(5,5-F2) = CC(F)(F)CC[C@H](N)C(=O)O; Pip(4-aza) = O=C(O)[C@@H]1CNCCN1; 4Pal = N[C@@H](Cc1ccncc1)C(=O)O; NMeE = CN[C@@H](CCC(=O)O)C(=O)O; αMeS = C[C@](N)(CO)C(=O)O; Nle = CCCC[C@H](N)C(=O)O; Sar = CNCC(=O)O

Legend:
[1] = target: T1, human soluble TNFR1 (sTNFR1) (Homo sapiens, UniProt P19438); test: Human sTNFR1-peptide displacement assay (LanthaScreen Eu TR-FRET binding assay)
T1 construct: made in house; host or cells: Sf21 (baculovirus)
T1 sequence (P19438 with tags, fused parts or gaps): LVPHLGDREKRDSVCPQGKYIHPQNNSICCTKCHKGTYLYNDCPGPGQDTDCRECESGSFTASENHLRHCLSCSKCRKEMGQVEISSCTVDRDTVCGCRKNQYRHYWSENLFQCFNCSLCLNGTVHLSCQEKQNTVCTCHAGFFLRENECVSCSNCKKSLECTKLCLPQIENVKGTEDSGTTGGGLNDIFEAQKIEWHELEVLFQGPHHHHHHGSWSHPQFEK
Summary of the method: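 Readout is the 665/615 nm TR-FRET ratio (Eu anti-His donor, streptavidin-Alexa647 acceptor), normalized to DMSO and saturating displacer, fit by Morrison-based five-parameter logistic for Kd^app. His-tagged sTNFR1 (1-211) prebound to 100 nM biotinylated peptide SEQ ID NO.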

[2] = target: T2, TNFα-induced NF-κB signal transduction pathway (TNFR1 signaling) in THP-1 cells (Homo sapiens, UniProt P19438); test: THP-1 Lucia NF-κB reporter cell assay, inhibition of TNFα-induced NF-κB signaling; format: cell-based; details: THP-1 NF-κB Lucia reporter cells, 10 ng/mL TNFα, 16-18 h, secreted luciferase; read-out: THP-1 IC50
T2 sequence (P19438 30-455): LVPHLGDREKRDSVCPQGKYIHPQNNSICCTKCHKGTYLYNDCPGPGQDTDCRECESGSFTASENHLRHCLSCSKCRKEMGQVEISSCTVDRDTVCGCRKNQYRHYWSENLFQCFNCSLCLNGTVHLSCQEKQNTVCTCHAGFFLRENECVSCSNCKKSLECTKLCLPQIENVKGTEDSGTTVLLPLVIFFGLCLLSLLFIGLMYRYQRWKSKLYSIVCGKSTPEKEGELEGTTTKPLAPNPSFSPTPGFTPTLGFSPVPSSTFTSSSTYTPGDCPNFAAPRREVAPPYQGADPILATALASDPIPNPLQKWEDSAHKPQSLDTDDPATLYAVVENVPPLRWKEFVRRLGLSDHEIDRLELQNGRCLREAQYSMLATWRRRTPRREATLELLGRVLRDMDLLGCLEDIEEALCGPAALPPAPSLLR
Summary of the method: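 Inhibition of TNFR1-driven NF-κB activation was measured as luminescence of secreted reporter luciferase following overnight (16-18 h) stimulation with 10 ng/mL TNFα.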

## CCCC[C@@H]1NC(=O)CSC[C@@H](C(N)=O)NC(=O)[C@H]([C@@H](C)c2c[nH]c3c(OC)cccc23)NC(=O)CN(C)C(=O)[C@H](Cc2ccc(O)cc2)NC(=O)[C@H](Cc2ccc(C(=O)O)cc2)NC(=O)[C@](C)(CO)NC(=O)[C@H](Cc2c[nH]c3c(Cl)cccc23)NC(=O)[C@H](Cc2ccncc2)NC(=O)[C@H](CC(N)=O)NC(=O)[C@H](CCC(=O)O)N(C)C(=O)[C@H](Cc2c[nH]c3ccccc23)NC(=O)[C@@H]2C[C@H](N)CCN2C(=O)[C@H](Cc2ccncc2)NC1=O [SEQ ID NO. 271] ({CH2CO}-[Nle][4Pal][X23]W[NMeE]N[4Pal][Trp(7-Cl)][αMeS][Phe(4-COOH)]Y[Sar][Trp(βS-Me,7-OMe)]C-NH2; thioether N-14)
[1]
  pKd: 9.02
[2]
  pIC50: 8.57

## COc1cccc2c([C@H](C)[C@@H]3NC(=O)CN(C)C(=O)[C@H](Cc4ccc(O)cc4)NC(=O)[C@H](Cc4ccc(C(=O)O)cc4)NC(=O)[C@](C)(CO)NC(=O)[C@H](Cc4c[nH]c5c(Cl)cccc45)NC(=O)[C@H](Cc4ccncc4)NC(=O)[C@H](CC(N)=O)NC(=O)[C@H](CCC(=O)O)N(C)C(=O)[C@H](Cc4c[nH]c5ccccc45)NC(=O)[C@@H]4CNCCN4C(=O)[C@H](Cc4ccncc4)NC(=O)[C@H](CCC(C)(F)F)NC(=O)[C@@H]4CC[C@@H](C4)NC3=O)c[nH]c12 [SEQ ID NO. 275] (cyclo([4Pal][Trp(7-Cl)][αMeS][Phe(4-COOH)]Y[Sar][Trp(βS-Me,7-OMe)][X1][Nle(5,5-F2)][4Pal][Pip(4-aza)]W[NMeE]N))
[1]
  pKd: 9.44
[2]
  pIC50: 8.85
